According to PubChem BioAssay AID1033 (Sanford-Burnham Center for Chemical Genomics, 2008):
pKd: −log10 of the molar value. Calls of active or inactive are those of the source. No rule for the calls is given here.

These compounds were tested against Chaperone protein DnaK (Escherichia coli (strain K12)) (UniProt P0A6Y8) (assay: E. coli DnaK SBD ligand binding – biophysical, NMR, chaperone (AID 1033)). Conditions: Purified DnaK SBD.
Sequence of Chaperone protein DnaK (Escherichia coli (strain K12)) (P0A6Y8 whole entry, looked up): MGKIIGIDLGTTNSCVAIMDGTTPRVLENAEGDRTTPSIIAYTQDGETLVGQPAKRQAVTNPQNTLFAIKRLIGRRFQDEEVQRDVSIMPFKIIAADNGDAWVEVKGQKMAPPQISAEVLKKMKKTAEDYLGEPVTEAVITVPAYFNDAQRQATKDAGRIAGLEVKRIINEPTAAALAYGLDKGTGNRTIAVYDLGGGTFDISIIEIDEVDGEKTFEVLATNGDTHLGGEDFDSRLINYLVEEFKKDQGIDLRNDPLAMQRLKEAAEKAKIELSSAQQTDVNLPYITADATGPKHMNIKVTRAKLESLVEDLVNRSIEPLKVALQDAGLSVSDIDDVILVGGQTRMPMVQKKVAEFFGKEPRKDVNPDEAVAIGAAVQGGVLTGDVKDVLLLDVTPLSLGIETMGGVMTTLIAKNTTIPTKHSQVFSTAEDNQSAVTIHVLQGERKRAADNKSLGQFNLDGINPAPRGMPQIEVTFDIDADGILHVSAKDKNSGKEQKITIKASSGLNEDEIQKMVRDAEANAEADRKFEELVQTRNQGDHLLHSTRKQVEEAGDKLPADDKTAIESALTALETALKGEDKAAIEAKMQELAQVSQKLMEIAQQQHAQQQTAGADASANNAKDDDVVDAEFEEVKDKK
For `O=C(O)c1ccccc1C(=O)Nc1ccccc1`, the Kd was > 4 mM (inactive). `COc1c2c(cc3c1OCO3)C13C=C[C@H](OC)CC1N(C2)CC3O` (some centres undefined) was tested, and the Kd was > 4 mM (inactive). For `NC(CSCSCC(N)C(=O)O)C(=O)O` (centres undefined), the Kd was > 4 mM (inactive). `Cc1cc(C)n2nc(NCc3ccccc3)nc2n1` was tested, and the Kd was > 4 mM (inactive). With `Cn1cccc1C(=O)NS(=O)(=O)c1ccccc1Cl` the Kd was > 4 mM (inactive). `COc1ccccc1NC(N)=S` was tested, and the Kd was > 4 mM (inactive). For `CC(=O)NC(=S)Nc1nc2ccccc2n1C(C)=O`, the Kd was > 4 mM (inactive). `O=c1c2ccccc2nc2n1CCC2O` (centres undefined) was tested, and the Kd was > 4 mM (inactive). With `Nc1cccc2c(=O)[nH][nH]c(=O)c12` the Kd was > 4 mM (inactive). For `O=C(O)C1CC(=O)N(CCc2ccc(Cl)cc2)C1` (centres undefined), the Kd was > 4 mM (inactive). In the case of `O=S1(=O)NC(=NCc2ccccc2)c2ccccc21`, the Kd was > 4 mM (inactive). In the case of `C/C=C1\[C@H]2C=C(C)C[C@]1(N)c1ccc(=O)[nH]c1C2`, the Kd was > 4 mM (inactive). With `CC(=O)CC1CCCCN1` (centres undefined) the Kd was > 4 mM (inactive). `CCOC(=O)c1c(C)nc2ccccn12` was tested, and the Kd was > 4 mM (inactive). `COc1ccccc1-c1nc(-c2ccc(C)nc2OC)no1` was tested, and the Kd was > 4 mM (inactive). `O=c1oc2c(O)c(O)cc3c(=O)oc4c(O)c(O)cc1c4c23` was tested, and the Kd was > 4 mM (inactive). In the case of `CC(=O)OC[C@H]1O[C@@H](Oc2cc(OC(C)=O)c3c(=O)cc(-c4ccc(OC(C)=O)cc4)oc3c2)[C@H](OC(C)=O)[C@@H](OC(C)=O)[C@@H]1OC(C)=O`, the Kd was > 4 mM (inactive). `CCC[C@@H]1CCCCN1` was tested, and the Kd was > 4 mM (inactive). With `Cc1ccccc1CSc1nncn1N` the Kd was > 4 mM (inactive). For `C[C@@H]1CC[C@@]2(NC1)O[C@H]1C[C@H]3C4CC=C5C[C@@H](O)CC[C@]5(C)C4CC[C@]3(C)C1[C@@H]2C` (some centres undefined), the Kd was > 4 mM (inactive). `O=c1c2ccccc2[nH]c2ncccc12` was tested, and the Kd was > 4 mM (inactive). `OC[C@@H](O)[C@@H](O[C@@H]1O[C@H](CO)[C@@H](O)[C@H](O)[C@H]1O)[C@H](O)[C@@H](O)CO` was tested, and the Kd was > 4 mM (inactive). In the case of `O=C(NS(=O)(=O)c1ccccc1)c1ccccc1F`, the Kd was > 4 mM (inactive). For `COc1ccc(-c2oc3c(CC=C(C)C)c(O[C@@H]4O[C@H](CO)[C@@H](O)[C@H](O)[C@H]4O)cc(O)c3c(=O)c2O[C@@H]2O[C@@H](C)[C@H](O)[C@@H](O)[C@H]2O)cc1`, the Kd was > 4 mM (inactive). In the case of `O=C(CSc1ncn[nH]1)c1ccc2c(c1)OCCO2`, the Kd was > 4 mM (inactive). For `Cc1oc(-c2ccccc2)nc1CCO`, the Kd was > 4 mM (inactive). `O=C(/C=C/c1ccccc1)NC1CCS(=O)(=O)C1` (centres undefined) was tested, and the Kd was > 4 mM (inactive). `CN(C)c1nc(N)nc(Cn2ccnc2)n1` was tested, and the Kd was > 4 mM (inactive). `CSc1ccc(/C=c2\sc3ncnn3c2=O)cc1` was tested, and the Kd was > 4 mM (inactive). With `CCOc1ccc(C)cc1S(=O)(=O)n1ccnc1` the Kd was > 4 mM (inactive). For `Nc1nc(-c2ccc(F)c(F)c2)cs1`, the Kd was > 4 mM (inactive). For `Cc1cc(C(F)(F)F)n2nc(C(=O)O)c(Cl)c2n1`, the Kd was > 4 mM (inactive). `NC(CC(=O)O)C(=O)Nc1ccc(Cl)cc1` (centres undefined) was tested, and the Kd was > 4 mM (inactive). `O=c1cc(-c2ccc(O)cc2)oc2cc(O)cc(O)c12` was tested, and the Kd was > 4 mM (inactive). In the case of `COc1ccc(-c2coc3c(O)c(OC)ccc3c2=O)cc1`, the Kd was > 4 mM (inactive). With `CSc1nnc2ccc(-c3cccnc3)nn12` the Kd was > 4 mM (inactive). With `CCn1nnc2c(NCc3ccccn3)ncnc21` the Kd was > 4 mM (inactive). With `O=c1/c(=C/c2cccs2)sc2ncnn12` the Kd was > 4 mM (inactive). For `CC(C)CCCC(C)C1CCC2C3=CC[C@H]4C[C@@H](O)CC[C@]4(C)C3CC[C@@]21C` (some centres undefined), the Kd was > 4 mM (inactive). In the case of `Cc1cc(C)c(NC(=O)CN2CCC(O)CC2)c(C)c1`, the Kd was > 4 mM (inactive). `O=C(O)CNCC(O)Cn1c2ccccc2c2ccccc21` (centres undefined) was tested, and the Kd was > 4 mM (inactive). In the case of `Nc1ncnc2c1ncn2CCOc1ccccc1`, the Kd was > 4 mM (inactive). With `O=C(Nc1cccnc1)c1cccs1` the Kd was > 4 mM (inactive). For `OC1CCN(C(=S)NC2CC2)CC1`, the Kd was > 4 mM (inactive). With `NS(=O)(=O)c1ccc(NC(=O)C2CC2)cc1` the Kd was > 4 mM (inactive). With `CN1C(=O)Cc2cc(S(N)(=O)=O)ccc21` the Kd was > 4 mM (inactive). For `Cc1cc(=O)oc2c1c(C)nn2CN1CCN(C)CC1`, the Kd was > 4 mM (inactive). With `CCCCCCCCCCCCCCC(C(=O)O)C(O)(CC(=O)OC)C(=O)O` (centres undefined) the Kd was > 4 mM (inactive). `O=C(c1ccccc1)N1CCN(c2ccccc2F)CC1` was tested, and the Kd was > 4 mM (inactive). `Cc1ncc(C(=O)O)c(-c2ccccc2)n1` was tested, and the Kd was > 4 mM (inactive). In the case of `O=C1NC(=S)NC(=O)C1=Cc1ccncc1`, the Kd was > 4 mM (inactive). `Cc1nnc(SCC(=O)NC2CCCC2)[nH]c1=O` was tested, and the Kd was > 4 mM (inactive). `CS(=O)(=O)NN=C1CCCCC1` was tested, and the Kd was > 4 mM (inactive). With `CC(=O)O[C@@H]1CC[C@@]2(C)C(CC[C@]3(C)C2CC=C2C4CC(C)(C)CC[C@]4(C(=O)O)CC[C@]23C)C1(C)C` (some centres undefined) the Kd was > 4 mM (inactive). With `CCNS(=O)(=O)c1cc(Br)ccc1OC` the Kd was > 4 mM (inactive). With `COc1cc2nc[nH]c(=O)c2cc1OC` the Kd was > 4 mM (inactive). In the case of `OC1CCN(c2nccc(C(F)(F)F)n2)CC1`, the Kd was > 4 mM (inactive). With `COn1c(=O)c(-c2ccco2)[n+]([O-])c2ccccc21` the Kd was > 4 mM (inactive). With `CS(=O)(=O)c1ccc2nc(N)sc2c1` the Kd was > 4 mM (inactive). With `C/C=C(\C)C(=O)O[C@@H]1c2c(ccc3ccc(=O)oc23)OC(C)(C)[C@@H]1OC(C)=O` the Kd was > 4 mM (inactive). With `NCc1ccc2c(c1)OCCO2` the Kd was > 4 mM (inactive). For `Nc1ccc(-c2csnn2)cc1`, the Kd was > 4 mM (inactive). With `CCCNC(=O)CSc1ncccc1C(=O)O` the Kd was > 4 mM (inactive). In the case of `CCCNC(=O)c1cnc2n(c1=O)CCS2`, the Kd was > 4 mM (inactive). With `CC(=O)Nc1ccc(NC(=O)/C=C\C(=O)O)cc1` the Kd was > 4 mM (inactive). For `Cc1nnc(SCc2ccccc2)[nH]c1=O`, the Kd was > 4 mM (inactive). In the case of `COc1ccc(Cl)cc1-c1n[nH]c(=S)n1C`, the Kd was > 4 mM (inactive). In the case of `CC(=O)c1ccc(CC2SC(N)=NC2=O)cc1` (centres undefined), the Kd was > 4 mM (inactive). With `O=c1c(-c2ccc(O)cc2)coc2cc(O)ccc12` the Kd was > 4 mM (inactive). With `O=C(NCc1ccc2c(c1)OCO2)c1cccs1` the Kd was > 4 mM (inactive). `CC(=O)Nc1ccc(Cl)c(C(N)=O)c1` was tested, and the Kd was > 4 mM (inactive). For `Nc1ccc(OC(F)(F)F)cc1`, the Kd was > 4 mM (inactive). `O=C(Nc1cccc(Cl)c1)c1cnn2cccnc12` was tested, and the Kd was > 4 mM (inactive). For `CC1=C2C(=CO[C@H](C)[C@H]2C)C(=O)C(C(=O)O)=C1O`, the Kd was > 4 mM (inactive). In the case of `CC(=O)n1c(N)nc2ccccc21`, the Kd was > 4 mM (inactive). With `Cc1ccc(/C=N/NC(N)=O)o1` the Kd was > 4 mM (inactive). For `Cc1ccc(S(=O)(=O)CC(N)=O)cc1`, the Kd was > 4 mM (inactive). `Cc1ccc(-n2ncc(C#N)c2/N=C/N(C)C)cc1` was tested, and the Kd was > 4 mM (inactive). With `CC1Cc2nc(SCC(N)=O)n(C)c(=O)c2S1` (centres undefined) the Kd was > 4 mM (inactive). `CC(=O)Nc1ccc(NC(=O)N2CCOCC2)cc1` was tested, and the Kd was > 4 mM (inactive). With `CN1C2CC3C[C@H]1C(O3)C2O` (some centres undefined) the Kd was > 4 mM (inactive). In the case of `C/C(N)=C/C(=O)N1CCCCC1`, the Kd was > 4 mM (inactive). In the case of `NC1=NC(=O)/C(=C\c2cccc(C(=O)O)c2)S1`, the Kd was > 4 mM (inactive). `CSc1nc(C)cc(Oc2ccc(=O)n(C)n2)n1` was tested, and the Kd was > 4 mM (inactive). For `O=C1CCNc2ccccc2N1`, the Kd was > 4 mM (inactive). `Cn1c(O)c(/C=C2\C=CC=N2)c(=O)[nH]c1=S` was tested, and the Kd was > 4 mM (inactive). With `COC(=O)Nc1c(C)n(C)n(-c2ccccc2)c1=O` the Kd was > 4 mM (inactive). In the case of `CCP(=O)(CC)c1cccc(C)c1`, the Kd was > 4 mM (inactive). For `O=C(Nc1ccccc1CO)c1ccccc1F`, the Kd was > 4 mM (inactive). For `COC(=O)c1sc(N)nc1C`, the Kd was > 4 mM (inactive). `COC(=O)[C@@H]1OC(=O)C2OC23[C@@]1(C)CCC1[C@@]2(C)CCC(=O)C(C)(C)C2C[C@@H](OC(C)=O)[C@]13C` (some centres undefined) was tested, and the Kd was > 4 mM (inactive). For `O=S1(=O)NC(=NCc2ccco2)c2ccccc21`, the Kd was > 4 mM (inactive). For `c1ccc(CCc2nc(-c3ccncc3)no2)cc1`, the Kd was > 4 mM (inactive). `CCCNC(CC(=O)Nc1cccnc1)C(=O)O` (centres undefined) was tested, and the Kd was > 4 mM (inactive). With `CC(Sc1ncn[nH]1)C(=O)O` (centres undefined) the Kd was > 4 mM (inactive). `CS/C(N)=C\C(C)=O` was tested, and the Kd was > 4 mM (inactive). In the case of `CN1CCC(NC(=O)C2CCCO2)CC1` (centres undefined), the Kd was > 4 mM (inactive). `Cc1cc(N)n(C2CCOC(C)(C)C2)n1` (centres undefined) was tested, and the Kd was > 4 mM (inactive). With `OCC1CNc2ccccc2O1` (centres undefined) the Kd was > 4 mM (inactive). With `c1ccc(NCc2nc(-c3ccccc3)no2)cc1` the Kd was > 4 mM (inactive). With `O=C(Oc1ccc2c(c1)OCC2=O)c1ccccc1` the Kd was > 4 mM (inactive). For `Cc1ccccc1NS(=O)(=O)c1ccc(F)cc1`, the pKd was 3.70. With `O=C(c1nc2ccccc2s1)N1CCSCC1` the Kd was > 4 mM (inactive). For `O=C(O)c1ccc(-n2ccnc2)cc1`, the Kd was > 4 mM (inactive). In the case of `COCC(=O)Nc1ccc(F)cc1F`, the Kd was > 4 mM (inactive). In the case of `CC(=O)NCS(=O)(=O)c1ccc(C)cc1`, the Kd was > 4 mM (inactive). For `O=C(NCCCO)c1ccncc1`, the Kd was > 4 mM (inactive). With `C[C@H]1[C@H]2CCC3C4CC=C5C[C@@H](N(C)C)CC[C@]5(C)C4CC[C@@]32CN1C` (some centres undefined) the Kd was > 4 mM (inactive). With `CN1CCC(O)N1C(=O)c1ccccc1O` (centres undefined) the Kd was > 4 mM (inactive). For `O=C(Nn1cnnc1)c1ccccc1-c1ccccc1`, the Kd was > 4 mM (inactive). `CCOC(=O)CC1NCCNC1=O` (centres undefined) was tested, and the Kd was > 4 mM (inactive). `Cc1cc(C(=O)NCc2ccco2)cs1` was tested, and the Kd was > 4 mM (inactive). With `c1cncc(Nc2nc(-c3ccncc3)cs2)c1` the Kd was > 4 mM (inactive). In the case of `O=C(O)c1cccnc1N1CCOCC1`, the Kd was > 4 mM (inactive). For `CCC(C)C(NC)C(=O)O` (centres undefined), the Kd was > 4 mM (inactive). In the case of `COc1cc(OC)c2c(c1)O[C@H](c1ccc(OC)c(OC)c1)[C@@H](O)C2`, the Kd was > 4 mM (inactive). `CN(C)C(=O)Nc1ccc(F)cc1F` was tested, and the Kd was > 4 mM (inactive). For `Oc1ccccc1-c1cc(C(F)(F)F)[nH]n1`, the Kd was > 4 mM (inactive). With `O=C(O)c1ccc(-c2cccs2)s1` the Kd was > 4 mM (inactive).
